Measured values reported in article PMC7730438, “Generation of KS-58 as the first K-Ras(G12D)-inhibitory peptide presenting anti-cancer activity in vivo” (Scientific Reports, 2020).
Several values for one entry are separate records, joined by “and”; a condition that tells them apart may be missing. Identical values can stand only once. Starred links: 1 amine or outer side, 2 acyl side, 3 side chain; linkers in the order of their positions; H or OH if unused. Positions of bridges follow the written chain, without caps; N, C: chain ends. Non-standard residues stand in square brackets, D forms with d. Residues, ends and D or L forms follow the SMILES beside them. Phe(4-F) = N[C@@H](Cc1ccc(F)cc1)C(=O)O; X1 = CCCCCCC[C@H](N[*:1])C(=O)[*:2]; Nle = CCCC[C@H](N)C(=O)O; X2 = C(C[*:1])C[*:2]; βAla = NCCC(=O)O

Experiments:
[1] = tested on: phosphorylation of ERK in A427 cells; test: Erk-phosphorylation assay (Phospho-ERK1/ERK2 ELISA); assay type: cell-based, human; conditions: A427, peptide 30 µM, n = 4, ± SEM
Description: (§1) A427 (ATCC HTB-53), A549 (ATCC CCL-185), H1975 (ATCC CRL-5908), PANC-1 (ATCC CRL-1469), MIA PaCa-2 (ATCC CRL-1420), and Capan-1 (ATCC HTB-79) cells were purchased from ATCC, and each cell was cultured in medium supplemented with 10% fetal bovine serum (FBS), according to the protocol recommended by the manufacture.
(§2) For evaluation of the effect of peptides on Ras–ERK pathways, phosphorylation of ERK was measured by Phospho-ERK1 (T202/Y204)/ERK2 (T185/Y187) DuoSet IC ELISA (DYC1018B-2, R&D SYSTEMS, MN, USA) according to the protocol supplied by the manufacturer. After 16 h serum starvation, cells were treated with peptides diluted in FBS-free medium for 1 h, and then treated with peptides diluted in FBS-containing medium for an additional 1 h. Phosphorylation rate of ERK (%) was calculated based on no serum stimulation as 0% and serum stimulation without peptide treatment as 100%.

[2] = tested on: phosphorylation of ERK in PANC-1 cells; test: as above; assay type: cell-based, human; conditions: PANC-1, peptide 30 µM, n = 4, ± SEM
Description: as §1, §2

[3] = target: T1, K-Ras(G12D)^GDP–SOS1 interaction (Homo sapiens, UniProt P01116, G12D); test: Intracellular PPI inhibition assay using NanoBiT in HEK293T cells; assay type: cell-based; conditions: peptide 30 µM, n = 4
T1 construct: host or cells: HEK293T
Description: (§3) Intracellular protein–protein interaction (PPI) inhibition assays were carried out using the NanoBiT system (Promega). Three kinds of plasmids with CMV promoters, which encodes human K-Ras(G12D) fusing SmBiT to the N-terminus, encodes human SOS1 fusing LgBiT to the C-terminus, and encodes human BRAF fusing LgBiT to the C-terminus, were prepared by Promega. Each combination of plasmids was transfected to HEK293T cells by FuGENE HD Reagent (E2312, […]). After 30 h incubation at 37 °C under 5% CO2, the cells were recovered, and seeded to 96-well tissue culture white plate with 10% FBS containing DMEM, and incubated overnight. Peptides were added to the plate and incubated for another 2 h. Nano-Glo (Promega, N2011) was directly added to the plate, and luminescence was immediately monitored. Intracellular K-Ras(G12D)^GDP–SOS1 and K-Ras(G12D)^GTP–BRAF interactions (%) were calculated based on no peptide treatment as 100% and only transfection of plasmid encoding LgBiT fusion protein as 0%.

[4] = target: T2, K-Ras(G12D)^GTP–BRAF interaction (Homo sapiens, UniProt P01116, G12D); test: as above; assay type: cell-based; conditions: peptide 30 µM, n = 4
T2 construct: host or cells: HEK293T
Description: as §3

[5] = Stability of peptide in rat plasma (RP-HPLC); assay type: in vitro ADME
Description: The stability of KS-58 in rat plasma was also evaluated. The peptides were incubated with rat plasma at 37 °C for different time periods (0 and 24 h), and the remaining amount of peptide was then determined using RP-HPLC. By comparing the peak area of the peptide, the remaining amount of peptide after plasma incubation was roughly estimated.
Each peptide (10 mM, 1 μL) was incubated with rat plasma (20 μL) prepared in house. […] The mixture was stored for 10 min at 4 °C and centrifuged at 15,000 rpm for 10 min at 4 °C. The supernatant was recovered and was directly supplied to RP-HPLC to determine the remaining amount of unmodified peptides in the sample.

[6] = Pharmacokinetics study in mice, intravenous injection; assay type: in vivo
Description: Prior to the in vivo anti-cancer activity evaluation, a preliminary pharmacokinetics (PK) study was completed using a 20 mg/kg intravenous injection. Plasma was collected at 15 min, 1 h, 4 h, and 24 h after injection. […] KS-58 was detected in plasma 15 min and 1 h after intravenous injection, but it was not detected at 4 h and 24 h, due to the limited detection ability of RP-HPLC. The concentration change indicated a two-compartment model (Fig. 5A).
Animal experiments were carried out at UNITECH Co. Ltd. (Chiba, Japan) in accordance with the guidelines of the Animal Care and Use Committee of UNITECH (approval No. AGR IMF-190807A-30). KS-58 was dissolved in DMSO and then tenfold diluted by saline. The peptide solution was injected intravenously to Slc:ICR male mice (8 weeks old; Japan SLC, Inc.) (20 mg/kg, n = 3). Blood samples were collected from the mice at 15 min, 1 h, 4 h, and 24 h after injection. The blood was chilled on ice and then centrifuged at 12,000 rpm for 3 min at 4 °C. Plasma protein was precipitated by acetonitrile, and the supernatant was recovered. The remaining peptides in prepared samples were analyzed by RP-HPLC as described above.

[7] = tested on: PANC-1 subcutaneous xenografts; test: Anti-cancer efficacy in PANC-1 subcutaneous xenografts; assay type: in vivo, mice; conditions: 40 mg/kg iv once every 2 days for 4 weeks
Description: Animal experiments were carried out at UNITECH Co. Ltd. in accordance with the guidelines of the Animal Care and Use Committee of UNITECH (approval No. AGR IMF-190807A-31, -33, AGR IMF-20615A-30). To establish subcutaneous xenograft tumor models, 1 × 10^7 cells/150 µL of PANC-1 cells were subcutaneously injected into the flank of Crlj:SHO-Prkdc^scidHr^hr female mice (7 weeks old; Charles River Laboratories). KS-58 was dissolved in DMSO and then tenfold diluted by saline. The peptide solution was injected intravenously to the mice bearing tumors once every 2 days for 4 weeks (40 mg/kg, n = 10). The tumor growth rate was recorded every 3 days by measuring the major and minor axes of the tumors formed with a digital caliper. Measurements were transformed into tumor volume using the formula: tumor volume (mm^3) = major axis × minor axis^2 × 0.5.

[8] = rat plasma, incubation time 0 h

CCCCCCC[C@@H]1NC(=O)[C@@H]2CSCCCSC[C@@H](NC(=O)[C@H](Cc3c[nH]c4ccccc34)NC(=O)[C@@H]3CCCN3C(=O)[C@H](CC(=O)O)NC(=O)[C@H](Cc3ccc(F)cc3)NC(=O)[C@H](CO)NC1=O)C(=O)NCCC(=O)N1CCC[C@H]1C(=O)N[C@@H](CCCC)C(=O)N2 [KS-58, c[βAla-Pro-Nle-c(Cys-Anon-Ser-4fF-Asp-Pro-Trp-^DCys)]] (cyclo([βAla]P[Nle]C[X1]S[Phe(4-F)]DPW[dC]); linker 4-11 via X2)
pERK (%) [1]: 26.0% and 26.0 ± 6.0%
pERK (%) [2]: 57.6% and 57.6 ± 7.6%
Intracellular K-Ras(G12D)^GDP–SOS1 interaction (luminescence, %) [3]: 35.5%
Intracellular K-Ras(G12D)^GTP–BRAF interaction (luminescence, %) [4]: 53.8%
Peak area value ([5]; Input (NT, no-serum treatment)): 491,842
recovery ([5]; input control without serum treatment, Input (NT, no-serum treatment), read-out: Recovery rate (%)): 100%
Stability in rat plasma (in words) ([5]; rat plasma, 37 °C, 24 h): remained intact for up to at least 24 h
Peak area value ([5]; rat plasma, 37 °C, incubation time 24 h): 467,142
recovery at 24 h, 0.476 mM ([5]; rat plasma, 37 °C, incubation time 24 h, read-out: Recovery rate (%)): 95%
remaining at 24 h, 0.476 mM ([5]; rat plasma, 37 °C, incubation time 24 h, read-out: Residual rate (%)): 98.6%
Peak area value [5, 8]: 473,575
Residual rate (%) [5, 8]: 100%
recovery at 0 h, 0.476 mM ([5]; rat plasma, incubation time 0 h, read-out: Recovery rate (%)): 96.3%
Detection in plasma by RP-HPLC ([6]; 20 mg/kg iv, 15 min and 1 h after injection): detected
Detection in plasma by RP-HPLC ([6]; 20 mg/kg iv, 4 h and 24 h after injection): not detected
peptide concentration in the blood ([6]; 20 mg/kg iv, for at least 1 h after the injection): more than 30 μM
half-life ([6]; male, Slc:ICR, mouse, plasma, 20 mg/kg intravenous injection, n = 3, read-out: blood circulation half-life (t1/2) in the elimination phase): 60 ± 1.9 min
Tumor growth (tumor volume) in subcutaneous xenografts [7]: significant tumor growth suppression
